{"source": "patent US20080206311A1", "about": "“Sucrase Activity Inhibitor, Glucoamylase Activity Inhibitor and Food and Feed Containing the Same” (MITSUI SUGAR CO., LTD., priority 2005, published 2008)", "key": {"[1]": {"target": "T1, sucrase (Rattus norvegicus, UniProt P23739)", "T1 construct": "This liquid contained a mixture of enzymes present in small intestine, such as sucrose, glucoamylase, maltase, and isomaltase; tissue Sigma Corporation; host or cells: rat small intestine (acetone powder), buffer extract, unpurified", "T1 sequence (P23739 whole entry)": "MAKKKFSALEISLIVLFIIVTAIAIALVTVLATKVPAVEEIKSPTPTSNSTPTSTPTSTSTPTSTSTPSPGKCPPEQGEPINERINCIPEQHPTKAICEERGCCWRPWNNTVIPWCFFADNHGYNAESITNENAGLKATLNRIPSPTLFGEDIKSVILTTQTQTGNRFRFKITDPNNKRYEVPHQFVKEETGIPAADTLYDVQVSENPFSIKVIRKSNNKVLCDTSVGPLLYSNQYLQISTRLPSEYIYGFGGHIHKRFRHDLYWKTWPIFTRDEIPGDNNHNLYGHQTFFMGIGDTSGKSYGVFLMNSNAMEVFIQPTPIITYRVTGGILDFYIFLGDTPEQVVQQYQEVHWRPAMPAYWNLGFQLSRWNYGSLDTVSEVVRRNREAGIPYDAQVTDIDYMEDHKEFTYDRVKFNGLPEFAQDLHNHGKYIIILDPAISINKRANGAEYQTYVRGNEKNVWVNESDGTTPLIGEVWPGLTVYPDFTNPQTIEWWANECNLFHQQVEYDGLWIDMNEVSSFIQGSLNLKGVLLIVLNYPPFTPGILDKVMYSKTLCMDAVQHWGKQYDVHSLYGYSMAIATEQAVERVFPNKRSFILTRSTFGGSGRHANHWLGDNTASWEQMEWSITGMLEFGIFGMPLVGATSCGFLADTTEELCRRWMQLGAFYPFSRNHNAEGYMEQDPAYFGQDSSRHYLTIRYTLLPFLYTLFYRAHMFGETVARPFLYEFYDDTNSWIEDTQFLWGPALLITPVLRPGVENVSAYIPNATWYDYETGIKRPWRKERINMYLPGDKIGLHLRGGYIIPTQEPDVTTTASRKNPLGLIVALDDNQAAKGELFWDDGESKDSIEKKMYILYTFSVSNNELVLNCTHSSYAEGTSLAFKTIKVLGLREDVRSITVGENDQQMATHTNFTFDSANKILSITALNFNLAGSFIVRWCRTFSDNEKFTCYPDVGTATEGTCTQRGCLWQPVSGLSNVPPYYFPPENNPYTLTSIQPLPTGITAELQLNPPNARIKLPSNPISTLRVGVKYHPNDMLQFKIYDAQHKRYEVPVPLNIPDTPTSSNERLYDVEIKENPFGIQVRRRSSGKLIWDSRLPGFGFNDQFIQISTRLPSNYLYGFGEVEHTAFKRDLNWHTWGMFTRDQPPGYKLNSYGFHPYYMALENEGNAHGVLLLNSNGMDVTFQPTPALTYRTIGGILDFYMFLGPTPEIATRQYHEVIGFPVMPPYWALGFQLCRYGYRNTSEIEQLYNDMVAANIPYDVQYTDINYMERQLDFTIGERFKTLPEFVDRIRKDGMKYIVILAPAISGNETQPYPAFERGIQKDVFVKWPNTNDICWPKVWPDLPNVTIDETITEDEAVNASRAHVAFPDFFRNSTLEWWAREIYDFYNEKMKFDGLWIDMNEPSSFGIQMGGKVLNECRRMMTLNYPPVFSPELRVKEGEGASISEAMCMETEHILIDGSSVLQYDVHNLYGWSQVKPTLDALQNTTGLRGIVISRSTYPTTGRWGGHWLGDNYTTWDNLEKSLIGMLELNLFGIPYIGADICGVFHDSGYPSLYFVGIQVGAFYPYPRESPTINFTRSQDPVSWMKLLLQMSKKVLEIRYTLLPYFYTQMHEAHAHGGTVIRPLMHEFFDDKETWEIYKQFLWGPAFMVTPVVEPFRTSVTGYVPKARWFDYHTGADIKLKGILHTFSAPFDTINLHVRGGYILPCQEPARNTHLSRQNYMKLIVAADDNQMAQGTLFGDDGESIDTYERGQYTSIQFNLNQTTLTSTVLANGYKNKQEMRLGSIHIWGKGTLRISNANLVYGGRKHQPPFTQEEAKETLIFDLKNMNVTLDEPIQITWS", "assay": "Sucrase activity inhibition with rat small-intestinal enzyme liquid, substrate sucrose", "type": "biochemical", "experimental": "Palatinose (trade name: Palatinose IC, ex Shin Mitsui Sugar Co., Ltd.) (test sample) was used as a sample for investigating each enzyme activity inhibitory effect. Maltose and sucrose were used as substrates for maltase and sucrose, respectively. The test sample and the substrates were dissolved in 0.1 M phosphate buffer (pH 6.8) at the concentration shown in Table 1 below to prepare test solutions (Solutions 4 and 5). Also, the test sample or the substrates were dissolved in 0.1 M phosphate buffer (pH 6.8), respectively to at the concentration shown in Table 1 below to prepare control solutions (Solution 1 for the test sample and Solutions 2 and 3 for the substrates).\n(§1) Two grams of rat small-intestinal acetone powder (ex Sigma Corporation) were dissolved in 20 ml of 0.1 M phosphate buffer (pH 6.8), left standing one day at 5° C., and subsequently subjected to centrifugal separation (8000 rpm×15 min.). The supernatant was filtered through a 0.8 μm membrane filter to obtain a small-intestinal enzyme liquid. This liquid contained a mixture of enzymes present in small intestine, such as sucrose, glucoamylase, maltase, and isomaltase.\n(§2) Each 0.25 ml of the small-intestinal enzyme liquid was added to each 5 ml of Solutions 1 through 5 and placed in a water bath at 37° C. to allow them to react for 60 min. while shaken at 60 strokes/min. After the reaction, they were heated in a boiling water bath for 3 min. for inactivation of the enzymes.\n(§3) The glucose concentration in each solution after the reaction was measured using the F-kit Glucose (ex Roche). A liberated glucose concentration (g/l) was calculated by subtracting the blank value (0.1 M phosphate buffer alone) and the concentration of glucose originally contained in the test sample from each glucose concentration measured.\n(§4) Next, each of the liberated glucose concentration was input in the following equation to obtain decomposition inhibition ratio for maltase and sucrose. In the present tests, the substrates and the inhibitors were decomposed by enzymes present in the small-intestinal enzyme liquid. However, the enzymes decomposing the substrates are different from the enzymes decomposing the inhibitors. The decomposition inhibition ratio was determined as a measure for the inhibitory effect. When the inhibitor was added, the glucose concentration was lower than that seen when the substrate alone was reacted. A higher decomposition inhibition ratio means a stronger inhibitory effect.\n(§5) Decomposition inhibition ratio,%={(A+B)−(AB)}+(A+B)×100 [Equation 1]\n(§6) wherein (A+B) indicates a sum of a liberated glucose concentration in the control solution containing the test sample alone after the reaction (A) and a liberated glucose concentration in the control solution containing the substrate alone after the reaction (B); and (AB) indicates a liberated glucose concentration in the test solution containing the test sample (A) and the substrate (B), after the reaction.\nThe procedures in Example 1 were repeated with the exception that the test solutions contained 5% of sucrose and 0.5%, 1.0%, 3.0% or 5.0% of palatinose to examine intensity of the sucrose activity inhibition. A control solution contained 5% of sucrose in 0.1 M phosphate buffer (pH 6.8).\nThe procedures in Example 1 were repeated with the exception that palatinit and palatinose were used as test samples and sucrose was used as a substrate. The test samples and the substrate were dissolved in 0.1 M phosphate buffer (pH 6.8) to attain the concentration shown in Table 3 to thereby prepare two test solutions. Besides, each one of the test samples or the substrate was dissolved in 0.1 M phosphate buffer (pH 6.8) to attain the concentration shown in Table 3 to thereby prepare control solutions. Each 5 ml of the aforementioned test solutions or the control solutions was subjected to the enzymatic reaction according to the same procedures as in Example 1. The glucose concentration and the fructose concentration were measured. […]"}, "[2]": {"tested_on": "glucoamylase", "assay": "Glucoamylase activity inhibition with rat small-intestinal enzyme liquid, substrate soluble starch", "type": "biochemical", "details": "5% soluble starch + 5% test sample", "experimental": "as §1, §2, §3, §4, §5, §6\nThe procedures in Example 1 were repeated with the exception that palatinose and palatinit were used as a test sample and soluble starch was used as a substrate. The test samples and the substrate were dissolved in 0.1 M phosphate buffer (pH 6.8) to attain the concentration shown in Table 6 to thereby prepare two test solutions. Besides, each of the test samples or the substrate was dissolved in 0.1 M phosphate buffer (pH 6.8) to attain the concentration shown in Table 6 to thereby prepare control solutions. Each 5 ml of the aforementioned test solutions and the control solutions was subjected to the enzymatic reaction according to the same procedures as in Example 1 and the liberated glucose concentration and the decomposition inhibition ratio were measured.\nThe procedures in Example 1 were repeated with the exception that trehalulose was used as a test sample and soluble starch was used as a substrate. The test sample and the substrate were dissolved in 0.1 M phosphate buffer (pH 6.8) to attain the concentration shown in Table 9 to thereby prepare a test solution. Besides, the test sample or the substrate was dissolved in 0.1 M phosphate buffer (pH 6.8) to attain the concentration shown in Table 9 to thereby prepare control solutions. Each 5 ml of the aforementioned test solution and the control solutions was subjected to the enzymatic reaction according to the same procedures as in Example 1 and the liberated glucose concentration and the decomposition inhibition ratio were measured.\nThe procedures in Example 1 were repeated with the exception that trehalose was used as a test sample and soluble starch was used as a substrate. […]"}, "[3]": {"target": "(Homo sapiens, UniProt P14410)", "sequence (P14410 whole entry)": "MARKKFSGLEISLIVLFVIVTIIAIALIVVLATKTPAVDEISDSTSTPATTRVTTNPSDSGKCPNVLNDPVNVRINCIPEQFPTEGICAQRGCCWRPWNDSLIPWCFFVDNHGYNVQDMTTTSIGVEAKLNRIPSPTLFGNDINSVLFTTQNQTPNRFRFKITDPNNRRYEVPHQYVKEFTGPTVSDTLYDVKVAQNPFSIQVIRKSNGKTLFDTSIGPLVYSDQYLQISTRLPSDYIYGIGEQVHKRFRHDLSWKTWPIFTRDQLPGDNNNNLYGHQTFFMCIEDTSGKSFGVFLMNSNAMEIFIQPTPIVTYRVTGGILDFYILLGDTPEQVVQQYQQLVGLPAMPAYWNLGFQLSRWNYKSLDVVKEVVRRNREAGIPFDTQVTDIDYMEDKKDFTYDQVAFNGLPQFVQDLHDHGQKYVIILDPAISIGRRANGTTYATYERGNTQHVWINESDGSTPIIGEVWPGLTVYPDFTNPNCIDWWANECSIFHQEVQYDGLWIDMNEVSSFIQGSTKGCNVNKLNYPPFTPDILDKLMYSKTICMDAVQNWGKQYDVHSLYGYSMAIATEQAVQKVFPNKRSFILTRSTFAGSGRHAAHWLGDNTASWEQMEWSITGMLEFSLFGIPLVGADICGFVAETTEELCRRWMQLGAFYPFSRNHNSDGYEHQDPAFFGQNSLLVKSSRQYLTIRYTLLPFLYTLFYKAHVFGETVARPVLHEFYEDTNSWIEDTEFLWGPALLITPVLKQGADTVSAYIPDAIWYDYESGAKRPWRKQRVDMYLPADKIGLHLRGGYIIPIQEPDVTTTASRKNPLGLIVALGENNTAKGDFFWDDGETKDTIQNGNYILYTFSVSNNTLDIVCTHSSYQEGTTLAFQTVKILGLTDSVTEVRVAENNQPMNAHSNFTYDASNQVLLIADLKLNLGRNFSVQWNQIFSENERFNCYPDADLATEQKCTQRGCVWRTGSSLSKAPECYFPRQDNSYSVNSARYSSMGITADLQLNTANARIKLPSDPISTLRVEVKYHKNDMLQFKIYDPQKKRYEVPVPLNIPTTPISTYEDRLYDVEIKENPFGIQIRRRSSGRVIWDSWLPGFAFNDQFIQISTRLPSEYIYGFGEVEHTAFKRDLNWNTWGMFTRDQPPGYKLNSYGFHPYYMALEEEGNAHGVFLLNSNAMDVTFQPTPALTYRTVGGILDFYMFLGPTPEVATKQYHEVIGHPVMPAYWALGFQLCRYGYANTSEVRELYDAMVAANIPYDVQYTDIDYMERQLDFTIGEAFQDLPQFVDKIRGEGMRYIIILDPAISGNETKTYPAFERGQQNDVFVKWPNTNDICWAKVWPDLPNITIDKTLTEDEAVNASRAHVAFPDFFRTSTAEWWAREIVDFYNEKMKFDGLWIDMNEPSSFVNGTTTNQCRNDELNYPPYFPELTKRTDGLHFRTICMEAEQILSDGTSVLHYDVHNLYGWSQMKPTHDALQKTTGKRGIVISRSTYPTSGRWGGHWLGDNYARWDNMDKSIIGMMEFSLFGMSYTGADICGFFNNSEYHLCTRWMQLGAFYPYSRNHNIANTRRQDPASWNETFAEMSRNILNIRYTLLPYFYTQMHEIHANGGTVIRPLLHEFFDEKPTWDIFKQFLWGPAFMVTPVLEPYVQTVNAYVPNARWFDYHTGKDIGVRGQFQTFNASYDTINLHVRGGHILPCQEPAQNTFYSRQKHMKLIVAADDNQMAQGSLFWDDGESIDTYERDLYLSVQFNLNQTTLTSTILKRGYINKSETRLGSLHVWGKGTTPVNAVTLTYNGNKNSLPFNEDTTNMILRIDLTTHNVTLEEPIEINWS", "details": "4.3-56 mM sucrose as substrate, 14 mM palatinose as inhibitor; cited from earlier work"}, "[4]": {"target": "T1, sucrase", "assay": "Ratio of inhibitor to the substrate sucrose (Examples 8, 9)", "type": "biochemical", "details": "10 min", "experimental": "Twenty samples with the concentrations shown in Table 11, Samples A-1 through A-20, were dissolved in 0.1 M phosphate buffer (pH 6.8) to a final volume of 2.5 ml.\nThis was made in the same way as in the preparation of a small intestinal enzyme solution in Example 1.\nEach 0.15 ml of a small intestinal enzyme solution was added to each 2.5 ml of the aforementioned 20 samples, each mixture, and placed in a water bath at 37° C. to allow reaction for 10 minutes while shaken at 60 strokes/min. At the end of the reaction, the mixture was heated in a boiling water bath for 3 min. for inactivation of the enzyme. As a blank, 0.15 ml of the intestinal enzyme solution was added to 0.1 M phosphate buffer (pH 6.8) and the enzyme was inactivated immediately.\nAfter the reaction, the glucose concentration in each solution was measured using the F-kit Glucose (ex Roche) as in Example 1.\nThe procedures in Example 8 were repeated with the exception that twenty samples with the concentrations shown in Table 12, Samples B-1 through B-20, were dissolved in 0.1 M phosphate buffer (pH 6.8) to a final volume of 2.5 ml."}, "[5]": {"details": "5% sucrose + 5% test sample, Example 3 / Test Example 2"}}, "note": "Entries after “also recorded” stand apart in the source; their conditions may differ.", "data": [{"smiles": "OC[C@H]1O[C@H](OC[C@H]2OC(O)(CO)[C@@H](O)[C@@H]2O)[C@H](O)[C@@H](O)[C@@H]1O", "note": "(stereo partly shown) [palatinose, isomaltulose]", "values": [{"measurement": "Intensity of the sucrase activity inhibition, dependence on concentration (FIG. 1)", "setting": "[1]; 5% sucrose + 0.5%, 1.0%, 3.0% or 5.0% palatinose", "result": "inhibits sucrose activity depending upon its concentration"}, {"measurement": "Sucrase activity inhibitory effect (in words)", "setting": "[1]; 5% sucrose + 5% test sample", "result": "a sucrose activity inhibitory effect; also recorded: have a sucrose inhibitory effect"}, {"measurement": "Liberated glucose concentration", "setting": "[1]; 5% sucrose + 5% test sample, 37° C., 60 min, Example 1 / Test Example 1", "result": "0.803 ± 0.055", "unit": "g/L"}, {"measurement": "Decomposition inhibition ratio, %, against sucrase", "setting": "[1]; 5% sucrose + 5% test sample, Equation 1, Example 1 / Test Example 1", "result": 24, "unit": "%"}, {"measurement": "Decomposition inhibition ratio, %, against sucrase", "setting": "[1]; [5]", "result": 29, "unit": "%"}, {"measurement": "Liberated fructose concentration", "setting": "[1]; [5]", "result": 1.05, "unit": "g/L"}, {"measurement": "Liberated glucose concentration", "setting": "[1]; [5]", "result": 0.79, "unit": "g/L"}, {"measurement": "Glucoamylase activity inhibitory effect (in words)", "setting": "[2]", "result": "have the glucoamylase activity inhibitory effect"}, {"measurement": "Decomposition inhibition ratio, %, against glucoamylase", "setting": "[2]; Example 4", "result": 26, "unit": "%"}, {"measurement": "Liberated glucose concentration", "setting": "[2]; Example 4", "result": 3.611, "unit": "g/L"}, {"measurement": "Inhibitory effect on the sucrase activity (reported)", "setting": "[3]", "result": "no inhibitory effect"}, {"measurement": "Inhibitory effect on the decomposition of sucrose (FIG. 5)", "setting": "[4]; sucrose concentration 0.5%, palatinose 5, 10, 50% relative to sucrose", "result": "not clear"}, {"measurement": "Ratio of palatinose added relative to the weight of sucrose at which decomposition of sucrose was suppressed (FIG. 4)", "setting": "[4]; sucrose concentrations 3%, 5%, 10% and 15%", "result": "≥ 10", "unit": "%"}]}]}
